target: human plasma kallikrein (Homo sapiens, UniProt P03952); assay: Kallikrein inhibition FLINT assay with quenched AMC peptide substrate Z-Gly-Pro-Arg-AMC (end point EP or kinetic KIN reads); format: biochemical; details: kinetic reads at 5 min intervals over 30 min; read-out: Kallikrein (KIN) IC50
Summary of the method: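 Enzyme and compound were preincubated 30 min before adding 50 μM AMC substrate in pH 7.5 Tris/NaCl/CaCl2/BSA/CHAPS buffer. AMC release was read at 30 min endpoint or every 5 min.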

Sequence of human plasma kallikrein (P03952 391-638 limits assumed): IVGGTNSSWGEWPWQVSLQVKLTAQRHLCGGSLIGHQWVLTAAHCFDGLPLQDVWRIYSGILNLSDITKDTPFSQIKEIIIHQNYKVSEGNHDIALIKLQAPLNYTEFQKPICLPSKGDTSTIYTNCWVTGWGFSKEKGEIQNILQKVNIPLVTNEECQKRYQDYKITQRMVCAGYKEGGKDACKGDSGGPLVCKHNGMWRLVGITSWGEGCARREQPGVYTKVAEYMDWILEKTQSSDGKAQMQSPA
Sequence of human plasma kallikrein (P03952 20-390 partner limits assumed): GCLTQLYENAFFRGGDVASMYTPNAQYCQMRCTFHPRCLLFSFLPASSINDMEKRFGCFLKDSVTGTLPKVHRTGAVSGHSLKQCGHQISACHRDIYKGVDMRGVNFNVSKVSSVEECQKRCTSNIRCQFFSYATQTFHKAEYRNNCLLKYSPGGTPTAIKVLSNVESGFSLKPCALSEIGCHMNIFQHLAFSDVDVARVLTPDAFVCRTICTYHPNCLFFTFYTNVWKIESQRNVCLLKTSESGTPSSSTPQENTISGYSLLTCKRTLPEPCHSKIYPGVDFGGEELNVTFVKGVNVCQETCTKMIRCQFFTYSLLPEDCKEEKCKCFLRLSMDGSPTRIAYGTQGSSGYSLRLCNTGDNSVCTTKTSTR

| IC50 [nM] | SMILES |
| --- | --- |
| 959 | Cc1cc(C(CC2CC2)n2cc(-c3cnn(C)c(=O)c3)cn2)[n+]([O-])cc1-c1c(-n2cnnn2)ccc(Cl)c1F (centres unmarked) [Example P130] |
| 23 | COc1ccc(CC(c2ccc(-c3cc(Cl)ccc3-n3cnnn3)c[n+]2[O-])n2cc(-c3ccc(C(=O)NC4CC4)cc3)cn2)cc1 (centres unmarked) [Example P86] |
| 1.7 | NC(=O)c1ccn(CC(c2ccc(-c3c(-n4cnnn4)ccc(Cl)c3F)c[n+]2[O-])n2cc(-c3ccncc3)cn2)n1 (centres unmarked) [Example P443] |
| 730 | [O-][n+]1ccc(-c2cnn(C(CC3CC3)c3ccc(-c4c(-n5cnnn5)ccc(Cl)c4F)c[n+]3[O-])c2)cn1 (centres unmarked) [Example P398] |
| 3.7 | [O-][n+]1cc(-c2c(-n3cnnn3)ccc(Cl)c2F)ccc1C(Cn1cc(F)cn1)n1cc(-c2ccnc(C3CC3)c2)cn1 (centres unmarked) [Example P500] |
| 220 | [O-][n+]1cc(-c2c(-n3cnnn3)ccc(Cl)c2F)ccc1C(CC1CC1)n1cc(-c2scnc2C2CC2)cn1 (centres unmarked) [Example P535] |
| 70.1 | COC(=O)Nc1ccc(-c2cnn(C(CC3CCCCO3)c3ccc(-c4c(-n5cnnn5)ccc(Cl)c4F)c[n+]3[O-])c2)cc1 (single isomer, unassigned) [Example P127] |
| 197 | O=C(C1CC1CC(c1ccc(-c2c(-n3cnnn3)ccc(Cl)c2F)c[n+]1[O-])n1cc(-c2ccncc2)cn1)N1CCCC1 (centres unmarked) [Example P266] |
| 377 | COC(=O)Nc1ccc(-c2cnn(C(CC3CC3C(=O)N3CCCC(c4ccccc4)C3)c3ccc(-c4c(-n5cnnn5)ccc(Cl)c4F)c[n+]3[O-])c2)cc1 (centres unmarked) [Example P221] |
| 791 | O=C(O)C1CCCN(C(=O)C2CC2CC(c2ccc(-c3c(-n4cnnn4)ccc(Cl)c3F)c[n+]2[O-])n2cc(-c3ccccc3)cn2)C1 (centres unmarked) [Example P223] |
| 43.9 | [O-][n+]1cc(-c2c(-n3cnnn3)ccc(Cl)c2F)ccc1C(CCOC(F)F)n1cc(-c2ccncn2)cn1 (centres unmarked) [Example P367] |
| 376 | O=C(C1CC1CC(c1ccc(-c2c(-n3cnnn3)ccc(Cl)c2F)c[n+]1[O-])n1cc(-c2ccncc2)cn1)N1CCC(C2CC2)C1 (centres unmarked) [Example P254] |
| 2.1 | COc1cc(C(CC2CC2)n2cc(-c3ccnn3C)cn2)[n+]([O-])cc1-c1c(-n2cnnn2)ccc(Cl)c1F (single isomer, unassigned) [Example P491] |
| 943 | [O-][n+]1cc(-c2c(-n3cnnn3)ccc(Cl)c2F)ccc1[C@@H](CC1CC1)n1cc(-c2nnco2)cn1 [Example P545] |
| 236 | Cn1ncc(F)c1-c1cnn(C(CC2CC2)c2ccc(-c3c(-n4cnnn4)ccc(Cl)c3F)c[n+]2[O-])c1 (centres unmarked) [Example P478] |
| 346 | CC(=O)Nc1cnc(C(F)(F)F)cc1-c1cnn(C(CC2CC2)c2ccc(-c3c(-n4cnnn4)ccc(Cl)c3F)c[n+]2[O-])c1 (single isomer, unassigned) [Example P842] |
| 22.4 | O=C1CCCN1CC(c1ccc(-c2c(-n3cnnn3)ccc(Cl)c2F)c[n+]1[O-])n1cc(-c2cc[n+]([O-])cc2)cn1 (single isomer, unassigned) [Example P244] |
| 131 | CC(=O)N(C)CC(c1ccc(-c2c(-n3cnnn3)ccc(Cl)c2F)c[n+]1[O-])n1cc(-c2cc[n+]([O-])cc2)cn1 (centres unmarked) [Example P351] |
| > 100 | CC1CC1C[C@@H](c1ccc(-c2c(-n3cnnn3)ccc(Cl)c2F)c[n+]1[O-])n1cc(-c2c(F)nnn2C)cn1 (some centres unmarked) [Example P769] |
| 755 | O=C(O)C1CCN(C(=O)C2CC2CC(c2ccc(-c3c(-n4cnnn4)ccc(Cl)c3F)c[n+]2[O-])n2cc(-c3ccccc3)cn2)CC1 (centres unmarked) [Example P215] |
| 70.5 | CC1CC1C[C@H](c1ccc(-c2c(-n3cnnn3)ccc(Cl)c2F)c[n+]1[O-])n1cc(-c2c(F)nnn2C)cn1 (some centres unmarked) [Example P768] |
| 320 | [O-][n+]1cc(-c2c(-n3cnnn3)ccc(Cl)c2F)ccc1C(CC1CCCO1)n1cc(-c2ccncc2)cn1 (centres unmarked) [Example P186] |
| 29.1 | COC(=O)Nc1ccc(-c2cnn(C(CC3CCCCO3)c3ccc(-c4c(-n5cnnn5)ccc(Cl)c4F)c[n+]3[O-])c2)cc1 (single isomer, unassigned) [Example P115] |
| 302 | [O-][n+]1cc(-c2c(-n3cnnn3)ccc(Cl)c2F)ccc1C(CC1CC1)n1cc(-c2ccnn2C(F)F)cn1 (centres unmarked) [Example P542] |
| 78.3 | COCC[C@H](c1ccc(-c2c(-n3cnnn3)ccc(Cl)c2F)c[n+]1[O-])n1cc(-c2ccnn2C(F)F)cn1 [Example P561] |
| 271 | COC(=O)Nc1ccc(-c2cnn(C(COC(C)C)c3ccc(-c4c(-n5cnnn5)ccc(Cl)c4F)c[n+]3[O-])c2)cc1 (centres unmarked) [Example P229] |
| 3.2 | COCc1ccn(CC(c2ccc(-c3c(-n4cnnn4)ccc(Cl)c3F)c[n+]2[O-])n2cc(-c3ccnc(C(F)(F)F)c3)cn2)n1 (single isomer, unassigned) [Example P441] |
| 176 | COCCC(c1ccc(-c2c(-n3cnnn3)ccc(Cl)c2F)c[n+]1[O-])n1cc(-n2ccnc2)cn1 (single isomer, unassigned) [Example P527] |
| 192 | COCC(=O)Nc1ccc(-c2cnn(C(CC3CC3)c3ccc(-c4c(-n5cnnn5)ccc(Cl)c4F)c[n+]3[O-])c2)cc1 (centres unmarked) [Example P131] |
| 5.8 | NC(=O)c1ccc(-c2cnn(C(CCOC(F)F)c3ccc(-c4c(-n5cnnn5)ccc(Cl)c4F)c[n+]3[O-])c2)cc1F (single isomer, unassigned) [Example P929] |

Further lines, the molecule ahead of its results:

| SMILES | IC50 [nM] |
| --- | --- |
| Cc1cc(-c2cnn(C(Cn3cc(F)cn3)c3ccc(-c4c(-n5cnnn5)ccc(Cl)c4F)c[n+]3[O-])c2)cc(C)[n+]1[O-] (centres unmarked) [Example P477] | 188 |
| NC(=O)Cc1ccnn1CC(c1ccc(-c2c(-n3cnnn3)ccc(Cl)c2F)c[n+]1[O-])n1cc(-c2ccnc(C(F)(F)F)c2)cn1 (centres unmarked) [Example P470] | 99.5 |
| [2H]C([2H])(C[C@@H](c1ccc(-c2c(-n3cnnn3)ccc(Cl)c2F)c[n+]1[O-])n1cc(-c2cn(C)nc2Cl)cn1)OC(F)F [Example P849] | 417 |
| [O-][n+]1cc(-c2c(-n3cnnn3)ccc(Cl)c2F)ccc1[C@@H](CCOC(F)F)n1cc(-c2nn(C(F)F)cc2Cl)cn1 [Example P572] | 24.1 |
| [O-][n+]1cc(-c2c(-n3cnnn3)ccc(Cl)c2F)ccc1C(Cc1ccc(F)cc1)n1cc(-c2cnn(C(F)F)n2)cn1 (single isomer, unassigned) [Example P598] | 862 |
| Cn1nccc1-c1cnn(C(CCOC(F)F)c2ccc(-c3c(-n4cnnn4)ccc(Cl)c3F)c[n+]2[O-])c1 (centres unmarked) [Example P487] | 8.9 |
| CC(C)(C)c1cnn(CC(c2ccc(-c3c(-n4cc(C(F)(F)F)nn4)ccc(Cl)c3F)c[n+]2[O-])n2cc(-c3ccc(C(N)=O)c(F)c3)cn2)c1 (centres unmarked) [Example P951] | 316 |
| COCCC(c1ccc(-c2c(-n3cc(Cl)nn3)ccc(Cl)c2F)c[n+]1[O-])n1cc(-c2c(Cl)nnn2C)cn1 (centres unmarked) [Example P639] | 316 |
| [O-][n+]1cc(-c2c(-n3cnnn3)ccc(Cl)c2F)ccc1C(Cn1cc(F)cn1)n1cc(-c2ccnc(C(F)(F)F)c2)cn1 (centres unmarked) [Example P275] | 19.1 |
| COc1cc(C(CC2CC2)n2cc(-c3ncnn3C)cn2)[n+]([O-])cc1-c1cc(Cl)ccc1-n1cc(C(F)(F)F)nn1 (single isomer, unassigned) [Example P918] | 29.5 |
| O=C(Cc1cnn(CC(c2ccc(-c3c(-n4cnnn4)ccc(Cl)c3F)c[n+]2[O-])n2cc(-c3ccnc(C(F)(F)F)c3)cn2)c1)N1CCCCC1 (centres unmarked) [Example P473] | 104 |
| Cn1ncnc1-c1cnn(C(CCOC(F)(F)F)c2ccc(-c3c(-n4cc(C(F)(F)F)nn4)ccc(Cl)c3F)c[n+]2[O-])c1 (centres unmarked) [Example P840] | ~423 |
| Cc1nccn1-c1cnn(C(CCOC(F)F)c2ccc(-c3c(-n4cc(OC(F)F)nn4)ccc(Cl)c3F)c[n+]2[O-])c1 (single isomer, unassigned) [Example P826] | 303 |
| [O-][n+]1cc(-c2c(-n3cnnn3)ccc(Cl)c2F)ccc1C(C(O)c1ccccc1)n1cc(-c2ccnn2C(F)F)cn1 (single isomer, unassigned) [Example P719] | 516 |
| Cn1cc(CC(c2ccc(-c3c(-n4cnnn4)ccc(Cl)c3F)c[n+]2[O-])n2cc(-c3ccnc(C(F)(F)F)c3)cn2)cn1 (centres unmarked) [Example P452] | 10.8 |
| NC(=O)c1ccc(-c2cnn([C@H](CCOC(F)F)c3ccc(-c4cc(Cl)ccc4-n4cc(C(F)(F)F)nn4)c[n+]3[O-])c2)cc1F [Example P859] | 28.7 |
| Cn1cc(CC(c2ccc(-c3c(-n4cnnn4)ccc(Cl)c3F)c[n+]2[O-])n2cc(-c3ccnc(C#N)c3)cn2)cn1 (centres unmarked) [Example P408] | 17.4 |
| [2H]C([2H])(CC(c1ccc(-c2cc(Cl)ccc2C#N)c[n+]1[O-])n1cc(-c2ncnn2C(F)F)cn1)OC(F)F (single isomer, unassigned) [Example Q53] | 222 |
| [O-][n+]1cc(-c2c(-n3cnnn3)ccc(Cl)c2F)ccc1C(Cn1cc(F)cn1)n1cc(-c2ccnc(C(F)(F)F)c2)cn1 (centres unmarked) [Example P333] | 17.2 |
| Cn1ncnc1-c1cnn(C(CCOC(F)F)c2ccc(-c3c(-n4nncc4OC(F)F)ccc(Cl)c3F)c[n+]2[O-])c1 (single isomer, unassigned) [Example P800] | 62.7 |
| CN1CCN(CC(c2ccc(-c3c(-n4cnnn4)ccc(Cl)c3F)c[n+]2[O-])n2cc(-c3ccnc(C(F)(F)F)c3)cn2)C1=O (centres unmarked) [Example P432] | 2.8 |
| [O-][n+]1cc(-c2c(-n3cnnn3)ccc(Cl)c2F)ccc1C(Cn1cc2c(n1)COCC2)n1cc(-c2ccnc(C(F)(F)F)c2)cn1 (centres unmarked) [Example P465] | 76.5 |
| COc1cc(C(CC2CC2)n2cc(-c3c(F)nnn3C)cn2)[n+]([O-])cc1-c1cc(Cl)ccc1C#N (single isomer, unassigned) [Example Q62] | 80.9 |
| O=C(Cc1cnn(CC(c2ccc(-c3c(-n4cnnn4)ccc(Cl)c3F)c[n+]2[O-])n2cc(-c3ccnc(C(F)(F)F)c3)cn2)c1)N1CCCCC1 (centres unmarked) [Example P475] | 324 |
| [O-][n+]1cc(-c2c(-n3cnnn3)ccc(Cl)c2F)ccc1[C@@H](Cn1ccc(OC(F)F)n1)n1cc(-c2ccnc(C(F)(F)F)c2)cn1 [Example P533] | 7.7 |
| CC1(C(=O)NCC(c2ccc(-c3cc(Cl)ccc3-n3cnnn3)c[n+]2[O-])n2cc(-c3ccnc(F)c3)cn2)CC1 (centres unmarked) [Example P347] | 806 |
